# Measured values taken from US8802826B2, “Anti-clusterin antibodies and antigen binding fragments and their use to reduce tumor volume” (Alethia Biotherapeutics Inc., priority 2009, dated 2014).
# How the values were obtained:
# [1] = target: T1, murine clusterin (Mus musculus, UniProt Q06890); test: immunohistochemistry on frozen sections of 4T1 mouse mammary tumors; type: binding; details: 5 μg/ml, 1 h
# T1 construct: murine clusterin that was expressed in BR1-JM01 cells; endogenous in cells; host or cells: BR1-JM01 mouse mammary carcinoma cells
# T1 sequence (Q06890 22-448): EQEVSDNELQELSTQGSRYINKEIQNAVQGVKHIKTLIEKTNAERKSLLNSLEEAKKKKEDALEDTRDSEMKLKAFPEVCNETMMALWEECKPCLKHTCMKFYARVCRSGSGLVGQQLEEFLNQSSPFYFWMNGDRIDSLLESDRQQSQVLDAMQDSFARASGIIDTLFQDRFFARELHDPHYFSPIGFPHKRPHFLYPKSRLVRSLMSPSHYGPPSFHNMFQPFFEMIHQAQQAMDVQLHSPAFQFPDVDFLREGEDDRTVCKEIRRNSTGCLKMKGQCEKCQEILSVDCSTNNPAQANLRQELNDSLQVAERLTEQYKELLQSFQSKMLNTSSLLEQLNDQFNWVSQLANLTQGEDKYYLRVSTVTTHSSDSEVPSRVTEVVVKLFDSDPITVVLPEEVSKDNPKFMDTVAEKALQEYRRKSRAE
# Description: FIG. 16. […] The experiment was performed using immunohistochemistry and detection was accomplished using a HRP-conjugated secondary antibody.
# Briefly, the frozen sections were fixed with ice-cold acetone for 10 minutes and non-specific binding was blocked with a reagent supplied in a commercially available kit (Dako Canada, Inc., Burlington, ON). H16B5 was incubated with the mouse tumor section for 1 h at a concentration of 5 μg/ml. […] A control sample was processed in an identical manner with a human isotype control IgG.
# [2] = tested on: PC3 tumor cell line; test: invasive growth in Matrigel, PC3; type: cell-based, human; details: 8 μg/mL, up to 3 weeks
# Description: FIG. 5. Inhibition of h16B5 reduces the invasiveness of human prostate cancer cells. The bottom of 12-well plates was covered with 200 μL Growth factor reduced matrigel (Becton Dickinson). Cells (2.5×10^4) were resuspended in 200 μL matrigel, which was layered on top of this, and finally 500 μL of cell specific growth medium was added on top of the matrigel. h16B5 was added to every layer of matrigel as well as the medium in a concentration of 8 μg/mL. Plates were incubated at 37° C. for up to 3 weeks during which the growth medium (+/−h16B5) was replenished weekly. The arrows indicate the areas of epithelial-like cells.
# We then determined whether other cell lines such as the human prostate PC3 and DU145 cell lines, which secrete various levels of endogenous clusterin, could be affected in their invasive behavior and growth by the h16B5.
# [3] = tested on: EMT6 cells; test: wound healing (scratch) migration assay; type: cell-based, mouse; details: for activity in the scratch assay relative to the other antibodies: comparison between 16B5 configurations
# Description: FIG. 4. h16B5 blocks the migration of cancer cell lines.
# To test the activity of anti-clusterin antibodies against cancer cell migration, a standard wound healing, or scratch assay, was used. In this assay, EMT6 cells, a mouse mammary carcinoma cell line, was plated at high density and subjected to wounding by the creation of a scratch in the cell layer. At time 0, a wide denuded area is evident that quickly fills up after incubation of the cells at 37 C for 15 h (see upper left-hand panels in FIG. 4).
# [4] = target: T1, murine clusterin; test: immunofluorescence on BR1-JM01 cells; type: binding
# [5] = tested on: DU145 human prostate cancer cell line; test: DU145 prostate tumor xenograft; type: in vivo, SCID mice; details: 5 mg/kg i.p. twice per week
# Description: FIG. 6. Treatment of prostate cancer tumors with h16B5 reduces the growth of the tumors and increases their response to chemotherapy. DU145 prostate cancer cells (2×10^6) were implanted s.c. into SCID mice and allowed to grow until the tumor sizes were approximately 100 mm3. Tumors were measured bi-weekly with a digital caliper and tumor volumes were calculated as L×W×H. Each group contained 8 animals that were randomized prior to the beginning off the treatments. The results were expressed as mm^3±SEM. The P values were calculated using the Student's T test.
# These studies were performed to measure the in vivo efficacy of h16B5 in models of human cancer. Antisense oligonucleotides and small interfering RNAs targeting clusterin have been reported to induce apoptosis and chemosensitivity in vitro in prostate cancer xenografts. The model system that was used comprised the DU145 human prostate cancer cell line that is androgen-insensitive and represents one of the most well characterized models for this disease. Thus, 2 million cells were implanted sub-cutaneously into the flanks of SCID mice and the tumors were allowed to grow to approximately 100 mm^3. Starting on day 1, h16B5 was injected intra-peritoneally (i.p.) at a dosage of 5 mg/kg and from day 4, taxotere (TxT) was injected i.p. at a dosage of 10 mg/kg. […]
# [6] = tested on: BRI-JM01 mouse mammary carcinoma cells; test: internalization of fluorescently labelled secreted clusterin; type: cell-based; details: h16B5 10 μg/ml, labelled clusterin 250 ng/ml
# Description: FIG. 13. Secreted clusterin is internalized in cancer cells. Recombinant human clusteirn was expressed in 293-6E cells, purified, and labelled with Alexa Fluor 488 using a commercial labelling kit (Invitrogen). BRI-JM01 mouse mammary carcinoma cells were seeded on coverslips and treated with 250 ng/ml of labelled secreted clusterin. At the indicated times, the cells were washed with ice-cold PBS and fixed in 2% paraformaledyhyde. The slides were mounted with Antifade Gold and images were generated with a fluorescence microscope.
# FIG. 14. H16B5 inhibits the internalization of secreted clusterin in cancer cells. The experiment was performed as described for FIG. 13. H16B5 was added at 10 μg/ml.
# In order to begin to address this question, cell-based experiments were undertaken to determine if secreted clusterin interacted with cancer cells directly or via other secreted factors in the cell medium. In order to measure this, secreted clusterin was fluorescently labelled and incubated with BRI-JM01 mouse mammary carcinoma cells. […] As shown, the internalization increases over time in manner that is consistent with a receptor-mediated endocytic pathway. Furthermore, the punctate and perinuclear pattern of staining that results after 24 hours (see white arrows in FIG. 13) that is often observed in proteins that are internalized along the endosomal pathway. […]
substance,measurement,setting,value
"h16B5: humanized anti-clusterin IgG2 antibody, heavy chain SEQ ID NO.:9 and light chain SEQ ID NO.:10",detection of murine clusterin in 4T1 tumors,[1],detected murine clusterin
same,stellate morphology in Matrigel (invasive phenotype),[2],significantly reduced
same,migration of cells into the denuded area,[3]; 37 C for 15 h,blockage of migration
same,activity in the scratch assay relative to the other antibodies,[3],at least as active as the mouse 16B6
same,activity in the scratch assay relative to the other antibodies,[3]; listed as humanized 16B5,most effective inhibitor
same,detection of murine clusterin expressed in BR1-JM01 cells,[4],detected murine clusterin
same,growth of the (primary) tumors compared to the control,[5],significantly reduced
same,internalization of secreted clusterin into JM01 cells,[6],blocked
